Data from patent US20020028479A1, “Methods for the detection of fungal growth” (priority 2000, published 2002).

Experiments:
A. nidulans 200092 = test: Spore germination with indicator/electron donor added at T0, viewed microscopically; format: cell-based; conditions: added at the same time as spores (T0), no viability at 48 hours
Procedure: Spores from a frozen stock of A. nidulans 200092 at 1.63×10^7/ml) were diluted to 5×10^3/ml to yield 500 spores per well in yeast extract with glucose broth supplemented with lysine and uridine.
Tetrazolium salts (listed in Table 1) were each dissolved to 1 mg/ml in phosphate-buffered saline (PBS) or water, aliquotted, and frozen. Electron coupling agents phenazine methosulfate (PMS; lot 194-03) and menadione (MEN; lot 170-95) were prepared at 5 mM in PBS and 10 mM in acetone, respectively. Cultures had no electron coupling reagent added, PMS (120 μl of PMS per 12 ml of tetrazolium salt) or MEN (42 μl per 12 ml of tetrazolium salt). Each well received 25 μl of indicator.
Indicator (with or without electron coupling reagent) was added at the same time as spores (T0), following ˜24 hours of incubation (T24), or following ˜48 hours of incubation (T48). Wells were viewed ˜2 hours post addition. NC denotes no color seen.
Microscopically, when compared to wells that had no indicator added or had PMS added, it was evident that the spores were present but had not germinated. At 48 hours, these same wells still had not shown any signs of viability.

[1] = system: Aspergillus nidulans 200092; test: MTS/MEN growth inhibition assay, OD490;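 note: fungal spore suspensions in 96-well plates with MTS/MEN indicator, absorbance read after 2 h and again after further development up to 24 h, controls containing medium only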
Procedure: Spores from a frozen stock of Aspergillus nidulans 200092 (at 1.63×10^7/ml) were diluted to 5×10^3/ml to yield 500 spores per well in yeast extract with glucose broth supplemented with lysine and uridine.
MEN was added at a ratio of 42 μl MEN per 12 ml of MTS. Each well received 25 μl indicator.
98 μl of the spore suspension was added to the wells of a 96 well plate. Control wells received media only. […] Plates were then incubated for 2 hours and then read at OD490. MTS/MEN was then allowed to develop for an additional period of time up to 24 hours and the plates was re-read.

[2] = Aspergillus nidulans, 200092, 2 h
[3] = Aspergillus nidulans, 200092, 24 h

CC1=CC(=O)c2ccccc2C1=O [MEN, menadione]
germination or growth of the spores (A. nidulans 200092): inhibit germination or growth of the spores

COc1cc(-c2ccc(-[n+]3nc(-c4ccc([N+](=O)[O-])cc4)nn3-c3ccc([N+](=O)[O-])cc3)c(OC)c2)ccc1-[n+]1nc(-c2ccc([N+](=O)[O-])cc2)nn1-c1ccc([N+](=O)[O-])cc1.[Cl-].[Cl-] [TNTB, Tetranitro Blue Tetrazolium]
germination or growth of the spores (A. nidulans 200092): inhibit germination or growth of the spores

C[n+]1cc2c3c(ccc2c2ccc4cc5c(cc4c21)OCO5)OCO3 [Sanguinarine, sanguinarine]
IC50 [1, 2]: 1.42 µg/mL
inhibition at 0.0061 µg/mL [1, 2]: 16.2%
inhibition at 0.0122 µg/mL [1, 2]: -3.1%
inhibition at 0.0244 µg/mL [1, 2]: 15.6%
inhibition at 0.0488 µg/mL [1, 2]: 15.7%
inhibition at 0.0977 µg/mL [1, 2]: 42.9%
inhibition at 0.1953 µg/mL [1, 2]: 10.2%
inhibition at 0.3906 µg/mL [1, 2]: 33.8%
inhibition at 0.7813 µg/mL [1, 2]: 45%
inhibition at 1.5625 µg/mL [1, 2]: 49.6%
inhibition at 3.125 µg/mL [1, 2]: 50.8%
inhibition at 6.25 µg/mL [1, 2]: 86.9%
inhibition at 12.5 µg/mL [1, 2]: 89.4%
inhibition at 25 µg/mL [1, 2]: 88.4%
inhibition at 50 µg/mL [1, 2]: 77.3%
inhibition at 100 µg/mL [1, 2]: 53.3%
inhibition at 200 µg/mL [1, 2]: 7%
IC50 [1, 3]: 2.77 µg/mL
inhibition at 0.0061 µg/mL [1, 3]: 10.9%
inhibition at 0.0122 µg/mL [1, 3]: -1.7%
inhibition at 0.0244 µg/mL [1, 3]: 5.1%
inhibition at 0.0488 µg/mL [1, 3]: 7.9%
inhibition at 0.0977 µg/mL [1, 3]: 18.4%
inhibition at 0.1953 µg/mL [1, 3]: -2.4%
inhibition at 0.3906 µg/mL [1, 3]: 12.6%
inhibition at 0.7813 µg/mL [1, 3]: 19.7%
inhibition at 1.5625 µg/mL [1, 3]: 39.8%
inhibition at 3.125 µg/mL [1, 3]: 42.2%
inhibition at 6.25 µg/mL [1, 3]: 86.7%
inhibition at 12.5 µg/mL [1, 3]: 93.7%
inhibition at 25 µg/mL [1, 3]: 92.4%
inhibition at 50 µg/mL [1, 3]: 91.7%
inhibition at 100 µg/mL [1, 3]: 87.5%
inhibition at 200 µg/mL [1, 3]: 79.5%

Clc1ccccc1C(c1ccccc1)(c1ccccc1)n1ccnc1 [Clotrimazole, clotrimazole]
inhibition at 0.0039 µg/mL [1, 2]: 15.8%
inhibition at 0.0078 µg/mL [1, 2]: 35.4%
inhibition at 0.0156 µg/mL [1, 2]: 26%
inhibition at 0.0313 µg/mL [1, 2]: 56.8%
inhibition at 0.0625 µg/mL [1, 2]: 86.5%
inhibition at 0.125 µg/mL [1, 2]: 94.6%
inhibition at 0.25 µg/mL [1, 2]: 93%
inhibition at 0.5 µg/mL [1, 2]: 93%
inhibition at 1 µg/mL [1, 2]: 94.5%
inhibition at 2 µg/mL [1, 2]: 93.4%
inhibition at 4 µg/mL [1, 2]: 95.8%
inhibition at 8 µg/mL [1, 2]: 94.4%
inhibition at 16 µg/mL [1, 2]: 94.4%
inhibition at 32 µg/mL [1, 2]: 91.5%
inhibition at 64 µg/mL [1, 2]: 86%
inhibition at 0.0039 µg/mL [1, 3]: 6.6%
inhibition at 0.0078 µg/mL [1, 3]: 48.5%
inhibition at 0.0156 µg/mL [1, 3]: 47.2%
inhibition at 0.0313 µg/mL [1, 3]: 70.1%
inhibition at 0.0625 µg/mL [1, 3]: 77%
inhibition at 0.125 µg/mL [1, 3]: 93.6%
inhibition at 0.25 µg/mL [1, 3]: 91.6%
inhibition at 0.5 µg/mL [1, 3]: 92%
inhibition at 1 µg/mL [1, 3]: 93.9%
inhibition at 2 µg/mL [1, 3]: 92.3%
inhibition at 4 µg/mL [1, 3]: 96.2%
inhibition at 8 µg/mL [1, 3]: 94.2%
inhibition at 16 µg/mL [1, 3]: 93.4%
inhibition at 32 µg/mL [1, 3]: 92.1%
inhibition at 64 µg/mL [1, 3]: 91.9%

COc1cc(-c2ccc(-n3nc(-c4ccccc4)n[n+]3-c3ccccc3)c(OC)c2)ccc1-n1nc(-c2ccccc2)n[n+]1-c1ccccc1 [BT, Tetrazolium Blue Chloride]
germination or growth of the spores (A. nidulans 200092): inhibit germination or growth of the spores

O=[N+]([O-])c1ccc(-[n+]2nc(-c3ccccc3)nn2-c2ccc(I)cc2)cc1.[Cl-] [INT, p-Iodonitrotetrazolium Violet]
germination or growth of the spores (A. nidulans 200092): inhibit germination or growth of the spores

c1ccc(-c2nn(-c3ccccc3)[n+](-c3cccc4ccccc34)n2)cc1 [TV, Tetrazolium Violet]
germination or growth of the spores (A. nidulans 200092): inhibit germination or growth of the spores
